Source: patent US5053333A, “Protease” (M & D Research Co., Ltd., priority 1988, dated 1991)
Peptide text beside a SMILES is read from it. * marks the point of attachment. AMC = Cc1cc(=O)oc2cc(N*)ccc12; Boc = CC(C)(C)OC(=O)*

Tests used:
[1] = system: Benz-I (protease specific for basic amino acid residue); assay: Substrate specificity of Benz-I with fluorescent substrates; type: biochemical, Kluyveromyces lactis IFO 1903; conditions: activity for Boc-Gln-Arg-Arg-MCA being 100; standard conditions
Protocol: (§1) 1 ml of a reaction mixture containing 50 μmol of Tris-hydrochloride buffer (pH 7.0), 10 mg of Lubrol PX, 0.5 μmol of calcium chloride, 0.1 μmol of Boc-Gln-Arg-Arg-MCA, wherein Boc represents a t-butyloxycarbonyl group while MCA represents 4-methylcoumarin-7-amide and the enzyme is allowed to react at 30° C. The fluorescence (excition wavelength: 380 nm, emmision wavelength: 460 nm) originating from the 7-amino-4-methylcoumarin (AMC) thus formed is monitored with the lapse of time. The amount of the enzyme activity capable of catalyzing the release of 1 n mol of AMC per one minute is defined as 1 U. The specific activity is represented by U per mg of protein. The amount of the protein is determined by measurement the absorbance at […] as E^1% of protein being assumed to be 10.
(§2) The activities of Benz-I and Benz-II were determined under standard conditions with the use of various fluorescent substrates. The activity for each substrate was expressed by relative activity with the activity for Boc-Gln-Arg-Arg-MCA being 100.

[2] = system: Benz-II (protease specific for basic amino acid residue); assay: Substrate specificity of Benz-II with fluorescent substrates; type: biochemical, Kluyveromyces lactis IFO 1903; conditions: activity for Boc-Gln-Arg-Arg-MCA being 100; standard conditions
Protocol: as §1, §2

[3] = system: protease specific for basic amino acid residue from Sporobolomyces odrus IFO 1597; assay: Substrate specificity of Sporobolomyces protease with fluorescent substrates; type: biochemical; conditions: activity for Boc-Gln-Arg-Arg-MCA being 100; standard conditions
Protocol: A reaction mixture containing 50 μmol of tris hydrochloride buffer solution (pH 7.0), 10 mg of Lubrol PX, 0.5 μmol of calcium chloride, 0.1 μmol of Boc-Gln-Arg-Arg-MCA, wherein Boc represents a t-butyloxycalbonyl group while MCA represents 4-methylcoumarin-7-amide and the enzyme is allowed to react at 30° C. The fluorescence (excition wavelength: 380 nm, emission wavelength: 460 nm) originating from the 7-amino-4-methylcoumarin (AMC) thus formed is monitored. The amount of the enzyme capable of catalyzing the release of 1 nmol of AMC per one minute is defined as 1 U.
The activities of the enzyme for various fluorescent substrates were determined under standard reaction conditions.

[4] = system: Benz-I (protease specific for basic amino acid residue); type: biochemical, Kluyveromyces lactis IFO 1903; conditions: Benz-I treated with 10 mM EDTA, dialyzed; reaction mixture with 0.5 mM metal ion; control lot = 100
Protocol: Benz-I was incubated in the presence of 10 mM of EDTA at 4° C. for one hour. When the enzyme was completely inactivated, the culture was dialyzed against 10 mM tris hydrochloride buffer solution (pH 7.0) containing 0.2% of Lubrol PX to thereby completely remove the EDTA. The enzyme mixture thus dialyzed was examined with respect to the recovery of the activity in reaction mixtures containing 0.5 mM of various metal ions.

[5] = system: protease specific for basic amino acid residue from Sporobolomyces odrus IFO 1597; type: biochemical; conditions: EDTA treatment +; reaction system EDTA (1 mM) +; metal 1.5 mM, 30° C. five minutes
Protocol: The enzyme was treated in the standard reaction mixture containing 1 mM of EDTA and free from any substrate at 25° C. for 30 minutes. Various metal ions were added thereto each in such an amount as to give a concentration of 1.5 mM and the mixture was incubated at 30° C. for five minutes. Then the activity of each case was determined.

protease B = assay: Activation and inhibition of protease B (stated properties); type: biochemical, Kluyveromyces lactis IFO 1903; conditions: statement in words
protease A = assay: Activation and inhibition of protease A (stated properties); type: biochemical, Sporobolomyces odrus IFO 1597; conditions: statement in words
Protocol: The enzymes was incubated in the absence of any substrate in standard reaction mixtures containing various inhibitors at 25° C. for 30 minutes. After adding the substrate, the residual activity of each enzyme was determined.
The enzyme was reacted in the standard reaction mixture while varying the type and concentration of surfactants.
The activity of the enzyme was determined in the presence of 0.1% of EDTA while varying the concentration of CaCl2. […] The concentration of free CaCl2 was calculated from the apparent dissociation constant (K1) of EDTA for CaCl2 (log K1 =7.3).

[6] = system: Benz-I (protease specific for basic amino acid residue); assay: Behavior of Benz-I against various inhibitors (residual activity); type: biochemical, Kluyveromyces lactis IFO 1903; conditions: 25° C. 30 minutes, control lot = 100
[7] = system: Benz-II (protease specific for basic amino acid residue); assay: Behavior of Benz-II against various inhibitors (residual activity); type: biochemical, Kluyveromyces lactis IFO 1903; conditions: 25° C. 30 minutes, control lot = 100
[8] = system: protease specific for basic amino acid residue from Sporobolomyces odrus IFO 1597; assay: Behavior of Sporobolomyces protease against various inhibitors (residual activity); type: biochemical; conditions: 25° C. 30 minutes

## Cc1cc(=O)oc2cc(NC(=O)[C@H](CCCNC(=N)N)NC(=O)[C@H](CCCNC(=N)N)NC(=O)[C@H](CCC(N)=O)NC(=O)OC(C)(C)C)ccc12 [Boc--Gln--Arg--Arg--MCA, Boc-Gln-Arg-Arg-MCA] (Boc-Gln-Arg-Arg-{AMC})
[1]
  Relative activity of Benz-I for substrate: 100
[2]
  Relative activity of Benz-II for substrate: 100
[3]
  Activity (relative) for substrate: 100%

## Cc1cc(=O)oc2cc(NC(=O)[C@H](CCCCN)NC(=O)[C@H](CCCCN)NC(=O)[C@H](CCC(=O)O)NC(=O)OC(C)(C)C)ccc12 [Boc--Glu--Lys--Lys--MCA] (Boc-Glu-Lys-Lys-{AMC})
[1]
  Relative activity of Benz-I for substrate: 1.3
[2]
  Relative activity of Benz-II for substrate: 0.9
[3]
  Activity (relative) for substrate: 0%

## Cc1cc(=O)oc2cc(NC(=O)[C@H](CCCNC(=N)N)NC(=O)[C@H](CCCNC(=N)N)NC(=O)CNC(=O)OC(C)(C)C)ccc12 [Boc--Gly--Arg--Arg--MCA]
[1]
  Relative activity of Benz-I for substrate: 19.8
[2]
  Relative activity of Benz-II for substrate: 19.7
[3]
  Activity (relative) for substrate: 32%

## Cc1cc(=O)oc2cc(NC(=O)[C@H](CCCNC(=N)N)NC(=O)[C@H](CCCCN)NC(=O)CNC(=O)OC(C)(C)C)ccc12 [Boc--Gly--Lys--Arg--MCA] (Boc-Gly-Lys-Arg-{AMC})
[1]
  Relative activity of Benz-I for substrate: 120
[2]
  Relative activity of Benz-II for substrate: 123
[3]
  Activity (relative) for substrate: 59%

## Cc1cc(=O)oc2cc(NC(=O)[C@H](CCCNC(=N)N)NC(=O)[C@H](CCCNC(=N)N)NC(=O)[C@H](CC(C)C)NC(=O)OC(C)(C)C)ccc12 [Boc--Leu--Arg--Arg--MCA] (Boc-Leu-Arg-Arg-{AMC})
[1]
  Relative activity of Benz-I for substrate: 159
[2]
  Relative activity of Benz-II for substrate: 156
[3]
  Activity (relative) for substrate: 115%

## Cc1cc(=O)oc2cc(NC(=O)[C@H](CCCNC(=N)N)NC(=O)[C@H](CCCCN)NC(=O)[C@H](CC(C)C)NC(=O)OC(C)(C)C)ccc12 [Boc--Leu--Lys--Arg--MCA] (Boc-Leu-Lys-Arg-{AMC})
[1]
  Relative activity of Benz-I for substrate: 123
[2]
  Relative activity of Benz-II for substrate: 127
[3]
  Activity (relative) for substrate: 75%

## Cc1cc(=O)oc2cc(NC(=O)[C@H](CCCNC(=N)N)NC(=O)[C@@H](NC(=O)[C@H](CO)NC(=O)[C@H](CC(C)C)NC(=O)OC(C)(C)C)[C@@H](C)O)ccc12 [Boc--Leu--Ser--Thr--Arg--MCA] (Boc-LSTR-{AMC})
[1]
  Relative activity of Benz-I for substrate: 127
[2]
  Relative activity of Benz-II for substrate: 97.0
[3]
  Activity (relative) for substrate: 2%

## Cc1cc(=O)oc2cc(NC(=O)[C@H](CCCNC(=N)N)NC(=O)[C@@H](NC(=O)[C@H](CC(C)C)NC(=O)OC(C)(C)C)[C@@H](C)O)ccc12 [Boc--Leu--Thr--Arg--MCA] (Boc-Leu-Thr-Arg-{AMC})
[1]
  Relative activity of Benz-I for substrate: 20.0
[2]
  Relative activity of Benz-II for substrate: 13.9
[3]
  Activity (relative) for substrate: 3%

## Cc1cc(=O)oc2cc(NC(=O)[C@H](CCCNC(=N)N)NC(=O)[C@@H]3CCCN3C(=O)[C@@H](NC(=O)OC(C)(C)C)C(C)C)ccc12 [Boc--Val--Pro--Arg--MCA] (Boc-Val-Pro-Arg-{AMC})
[1]
  Relative activity of Benz-I for substrate: 107
[2]
  Relative activity of Benz-II for substrate: 88.0
[3]
  Activity (relative) for substrate: 26%

## [Ca+2].[Cl-].[Cl-] [calcium chloride]
[4]
  Relative activity: 93.1%
[5]
  Relative activity: 107%
Protease B
  activation of protease B: activated
Protease A
  activation of protease A: best activated

## [Cl][Co][Cl] [cobalt chloride]
[4]
  Relative activity: 21.1%
[5]
  Relative activity: 57%

## O=S(=O)([O-])[O-].[Cu+2] [copper sulfate]
[6]; inhibitor 1 mM
  Residual activity of Benz-I: 0.2
[7]; inhibitor 1 mM
  Residual activity of Benz-II: 0.6
[8]; Ca2+ +, inhibitor 1 mM
  relative activity (residual): 2%
Protease B
  inhibition of protease B: inhibited
Protease A
  inhibition of protease A: inhibited

## O=C(O)CN(CCOCCOCCN(CC(=O)O)CC(=O)O)CC(=O)O [ethylene glycol bis(2-aminoethyl ether)tetraacetic acid]
[6]; inhibitor 1 mM
  Residual activity of Benz-I: 53
[6]; inhibitor 5 mM
  Residual activity of Benz-I: 12
[7]; inhibitor 1 mM
  Residual activity of Benz-II: 43
[7]; inhibitor 5 mM
  Residual activity of Benz-II: 12
[8]; Ca2+ --, inhibitor 1 mM
  relative activity (residual): 10%
Protease B
  inhibition of protease B: inhibited
Protease A
  inhibition of protease A: inhibited

## [Cl-].[Cl-].[Mg+2] [magnesium chloride]
[4]
  Relative activity: 43.6%
[5]
  Relative activity: 12%

## [Cl][Mn][Cl] [manganese chloride]
[4]
  Relative activity: 33.9%
[5]
  Relative activity: 53%

## [Cl][Hg][Cl] [mercury chloride]
[6]; inhibitor 1 mM
  Residual activity of Benz-I: 0
[7]; inhibitor 1 mM
  Residual activity of Benz-II: 0
[8]; Ca2+ +, inhibitor 1 mM
  relative activity (residual): 0%
Protease B
  inhibition of protease B: inhibited
Protease A
  inhibition of protease A: inhibited

## [Cl][Ni][Cl] [nickel chloride]
[4]
  Relative activity: 16.1%
[5]
  Relative activity: 58%

## N=C(N)c1ccc(CS(=O)(=O)F)cc1 [p-amidino-PMSF, p-amidinophenylmethanesulfonyl fluoride]
[6]; inhibitor 1 mM
  Residual activity of Benz-I: 0
[7]; inhibitor 1 mM
  Residual activity of Benz-II: 0
[8]; Ca2+ +, inhibitor 1 mM
  relative activity (residual): 10%
Protease B
  inhibition of protease B: inhibited
Protease A
  inhibition of protease A: inhibited

## O=C(O)c1cc[c]([Hg][Cl])cc1 [p-chloromercuribenzoic acid]
[6]; inhibitor 50 μM
  Residual activity of Benz-I: 1
[7]; inhibitor 50 μM
  Residual activity of Benz-II: 3
[8]; Ca2+ +, inhibitor 50 μM
  relative activity (residual): 36%
Protease B
  inhibition of protease B: inhibited
Protease A
  inhibition of protease A: inhibited

## [Cl-].[Cl-].[Zn+2] [zinc chloride]
[6]; inhibitor 1 mM
  Residual activity of Benz-I: 7
[7]; inhibitor 1 mM
  Residual activity of Benz-II: 7
[8]; Ca2+ +, inhibitor 1 mM
  relative activity (residual): 1%
Protease B
  inhibition of protease B: inhibited
Protease A
  inhibition of protease A: inhibited

## Triton X-100
Protease B
  activation of protease B: activated
Protease A
  activation of protease A: activated
